Experimental findings from patent US11465994B2, “MGluR7 agonist compounds for treating mGluR7-regulated diseases, disorders, or conditions” (Takeda Pharmaceutical Company Limited, priority 2016, dated 2022) are described below.

Like-named read-outs stand apart in the source and are kept apart here.

What all share (type): cell-based
Assay [1] addresses T1, mGluR7 (Homo sapiens, UniProt Q14831). Nature of the assay: Kinetic impedance assay (desensitization) in stable CHO-mGluR7 cells, response to tool activator CPD A after pre-treatment. As to conditions: FIG. 1B. As to the method:
Stable CHO-mGluR7 cells (DiscoverX) were pre-incubated with compounds (EC80, 1 h), washed and after 30 min, impedance changes upon addition of a tool mGluR7 activator (CPD A) were determined (Cellkey, Molecular Devices).

In another assay the target is T2, mouse mGluR7 (Mus musculus, UniProt Q68ED2).
T2 construct: expressed in transfected cells
T2 sequence (Q68ED2 35-915): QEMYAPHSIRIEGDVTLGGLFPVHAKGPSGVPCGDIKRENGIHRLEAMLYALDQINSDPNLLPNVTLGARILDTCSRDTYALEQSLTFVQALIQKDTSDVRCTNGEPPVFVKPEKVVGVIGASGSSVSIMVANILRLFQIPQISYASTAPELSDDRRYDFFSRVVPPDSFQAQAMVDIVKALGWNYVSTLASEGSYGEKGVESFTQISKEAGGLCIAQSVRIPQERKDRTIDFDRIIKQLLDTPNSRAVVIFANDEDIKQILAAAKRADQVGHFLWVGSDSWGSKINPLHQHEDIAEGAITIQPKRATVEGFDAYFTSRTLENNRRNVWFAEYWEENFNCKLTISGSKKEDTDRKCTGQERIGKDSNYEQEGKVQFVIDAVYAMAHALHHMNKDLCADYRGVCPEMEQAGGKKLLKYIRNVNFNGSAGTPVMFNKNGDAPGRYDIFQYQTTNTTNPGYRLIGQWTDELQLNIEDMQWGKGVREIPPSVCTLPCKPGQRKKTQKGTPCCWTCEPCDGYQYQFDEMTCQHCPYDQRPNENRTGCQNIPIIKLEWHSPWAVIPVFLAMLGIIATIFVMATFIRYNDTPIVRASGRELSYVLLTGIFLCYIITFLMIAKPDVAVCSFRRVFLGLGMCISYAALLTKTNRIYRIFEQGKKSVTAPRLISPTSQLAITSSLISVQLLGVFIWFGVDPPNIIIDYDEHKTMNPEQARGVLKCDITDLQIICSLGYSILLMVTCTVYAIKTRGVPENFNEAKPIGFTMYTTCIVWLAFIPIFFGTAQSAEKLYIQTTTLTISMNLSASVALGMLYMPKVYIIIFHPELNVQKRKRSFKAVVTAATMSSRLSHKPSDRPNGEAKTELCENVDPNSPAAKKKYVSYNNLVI
Nature of the assay: cAMP reporter gene assay in CHO-CRE-luc cells stably expressing mouse mGluR7. The method, then:
(§1) Compound activities were determined in CHO-CRE-luc cells stably expressing hu/mo mGluR7, using a cAMP reporter gene assay (Steady Glo, Promega). Selectivity was assessed in stable CHO-mGluR4 cells (DiscoverX) and CHO-mGluR8 transients using an HTRF cAMP assay (Cisbio).
(§2) The activation of mGluR7 was measured by the decreased forskolin stimulated luminescence signal. […] Forskolin stimulated luminescence signal was not reduced for mGluR4 and mGluR8.

The test system of assay [2] is CA1 pyramidal cells in mouse hippocampal slices (SC-CA1 pathway). Nature of the assay: Electrophysiology: intracellular EPSC recordings from CA1 pyramidal cells in mouse hippocampal slices. As to the method: FIG. 3A is a graph showing the results of a glutamate release assay for CPD1 in mouse synaptosomes. FIG. 3B is a graph showing the results of a glutamate release potentiation assay. FIG. 3C and FIG. 3D provide graphs of electrophysiological recordings from the SC-CA1 pathway in mouse hippocampal slices. FIG. 3C is a graph comparing the changes in intracellular recordings of excitatory postsynaptic currents (EPSCs) as a result of contact with L-AP4 at a concentration of 0.5 mM, CPD 1 at a concentration of 1 μM, and CPD 1 at a concentration of 5 μM. FIG. 3D is a graph comparing the changes in intracellular recordings of EPSCs in mice with wild-type (WT) mGluR7 and mice with an mGluR7 knock-out contacted with CPD 1 at a concentration of 5 μM.
Intracellular recordings were made from CA1 pyramidal cells following SC stimulation in mouse hippocampal slices. Compounds were applied to the slices for 10 min, with recordings made over a 45 minutes period. mGluR7 KO mice were obtained from the Toronto Centre for Phenogenomics.

In a further assay the target is T3, mGluR8 (Homo sapiens, UniProt O00222).
T3 construct: expressed in transfected cells; host or cells: CHO (transient transfection)
T3 sequence (O00222 34-908, species assumed): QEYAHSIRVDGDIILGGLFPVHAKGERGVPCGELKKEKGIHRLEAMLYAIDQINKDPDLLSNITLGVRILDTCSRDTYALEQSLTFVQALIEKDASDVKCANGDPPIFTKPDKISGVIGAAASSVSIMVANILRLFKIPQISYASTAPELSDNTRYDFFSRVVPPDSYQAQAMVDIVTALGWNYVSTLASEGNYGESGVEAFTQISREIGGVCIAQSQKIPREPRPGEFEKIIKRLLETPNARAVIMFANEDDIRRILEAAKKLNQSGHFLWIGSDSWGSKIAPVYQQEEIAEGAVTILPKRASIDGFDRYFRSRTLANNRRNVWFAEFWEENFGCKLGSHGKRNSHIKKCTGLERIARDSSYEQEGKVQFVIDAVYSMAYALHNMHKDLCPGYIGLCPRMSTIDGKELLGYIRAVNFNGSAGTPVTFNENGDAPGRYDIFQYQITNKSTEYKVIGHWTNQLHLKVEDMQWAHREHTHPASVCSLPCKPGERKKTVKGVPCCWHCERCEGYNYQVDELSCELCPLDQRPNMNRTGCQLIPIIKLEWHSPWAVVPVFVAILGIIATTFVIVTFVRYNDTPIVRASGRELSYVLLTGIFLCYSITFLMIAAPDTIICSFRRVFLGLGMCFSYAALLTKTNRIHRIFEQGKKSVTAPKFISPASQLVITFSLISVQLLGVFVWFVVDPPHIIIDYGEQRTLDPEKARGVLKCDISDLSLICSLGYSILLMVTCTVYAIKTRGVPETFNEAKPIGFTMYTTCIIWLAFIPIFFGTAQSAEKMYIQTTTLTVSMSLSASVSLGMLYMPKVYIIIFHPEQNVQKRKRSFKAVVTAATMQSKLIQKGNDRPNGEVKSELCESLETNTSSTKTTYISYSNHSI
Nature of the assay: Selectivity HTRF cAMP assay in CHO-mGluR8 transients. As to the method:
as §1, §2
In general terms: In TR-FRET formats the signal depends on donor and acceptor labels being close together.

Assay [3] concerns the target T1, mGluR7. Nature of the assay: Mode of action: cAMP assay in CHO-CRE-luc human mGluR7 cells in presence of orthosteric antagonist LY341495. The arrangement: expressed in transfected cells. As to conditions: FIG. 2C, 2D. The method, then:
FIGS. 2A-2D are graphs of the results from in vitro cAMP assays in CHO-CRE-luc cells stably expressing human mGluR7 to determine the mode of action of CPD1. FIG. 2A provides the compound activity of non-selective agonist, L-AP4, with increasing concentrations of orthosteric antagonist, LY341495 (LY). FIG. 2B provides the compound activity of a positive allosteric modulator (PAM) compound, VU0422288, for the same concentrations of LY as shown in FIG. 2A.
as §1
The mode of action of the compound in Example 16 was determined by testing activity in the presence of the orthosteric antagonist LY341495 (LY).
On the technique in general: Cyclic AMP is a second messenger, typically raised through Gs and lowered through Gi signalling.

Assay [4] deals with T1, mGluR7. Description: cAMP CRE-luciferase reporter gene assay (Steady Glo) in CHO-CRE-luc cells stably expressing human mGluR7. The arrangement: expressed in transfected cells. The method, then:
as §1
The ability of the test compounds to activate mGluR7 was determined by their ability to reduce forskolin stimulated cAMP production. Compounds were assessed in a CRE-directed luciferase reporter gene assay, using a stable CHO cell line expressing the CRE-luc reporter and human mGluR7 genes. In this cell line, production of cAMP stimulated the transcription of the luciferase gene and luciferase activity was then measured in a luminescent enzyme assay (Steady Glo assay; Promega E2550). Activation of mGluR7 decreased the forskolin stimulated luminescence signal.
The day prior to the assay, compounds were serially diluted in DMSO (100× final assay concentration (FAC)), in 384-well plates which were then stored in the dark at room temperature (RT) until use. Cells were seeded at 12.5 k/well in white, clear bottom 384-well plates (Corning 3707) and left for one hour at RT followed by an overnight incubation (37° C.). The following day, the DMSO compound plate was diluted 1:20 (5×FAC) in Opti-MEM I (Life Technologies 11058021). The growth media was removed from the cell plate and replaced with 15 μl Opti-MEM I, followed by a 5 μl addition from the 5× compound plate and a fifteen minute incubation (37° C.). Forskolin (Sigma F3917) was then added to the wells (5 μl of 2.5 μM) and the plate was incubated for five hours (37° C.). During this incubation, the Steady Glo Substrate reagent was warmed to 37° C. Aliquots (11 ml; stored at −20° C.) of this reagent were prepared by dissolving the contents of 1 vial of lyophilised substrate in 100 ml Steady-Glo buffer. A 25 μl addition of the substrate was made to all wells and the plate was incubated for thirty minutes at RT, on a plate shaker (300 rpm; in the dark). Luminescence was then measured using the EnVision Multilabel Reader (Perkin Elmer).
Compound activity was examined using a 10-point, half log concentration-response range and each concentration was tested in duplicate wells. Luminescence values were normalised to ‘maximum’ (forskolin alone) and ‘minimum’ (forskolin in the presence of tool mGluR7 agonist) controls.
On the technique in general: Reporter assays use an easily measured gene product as a stand-in for the process of interest.

The next assay deals with mGluR4 (Homo sapiens, UniProt Q14833). Nature of the assay: Selectivity HTRF cAMP assay in stable CHO-mGluR4 cells. The method, then:
as §1, §2

Assay [5] has as its system mouse cortical synaptosomes. Description: Glutamate release assay in mouse cortical synaptosomes. The method, then:
Stimulus induced glutamate release from mouse cortical synaptosomes was monitored using a fluorescence based glutamate dehydrogenase assay. Compounds were incubated for 1 or 10 min for the inhibition or potentiation modes respectively.

T1 sequence (Q14831 35-915): as the sequence (Q68ED2 35-915) above, with T454S, P486A, N544D counted along it
mGluR4, sequence (Q14833 33-912): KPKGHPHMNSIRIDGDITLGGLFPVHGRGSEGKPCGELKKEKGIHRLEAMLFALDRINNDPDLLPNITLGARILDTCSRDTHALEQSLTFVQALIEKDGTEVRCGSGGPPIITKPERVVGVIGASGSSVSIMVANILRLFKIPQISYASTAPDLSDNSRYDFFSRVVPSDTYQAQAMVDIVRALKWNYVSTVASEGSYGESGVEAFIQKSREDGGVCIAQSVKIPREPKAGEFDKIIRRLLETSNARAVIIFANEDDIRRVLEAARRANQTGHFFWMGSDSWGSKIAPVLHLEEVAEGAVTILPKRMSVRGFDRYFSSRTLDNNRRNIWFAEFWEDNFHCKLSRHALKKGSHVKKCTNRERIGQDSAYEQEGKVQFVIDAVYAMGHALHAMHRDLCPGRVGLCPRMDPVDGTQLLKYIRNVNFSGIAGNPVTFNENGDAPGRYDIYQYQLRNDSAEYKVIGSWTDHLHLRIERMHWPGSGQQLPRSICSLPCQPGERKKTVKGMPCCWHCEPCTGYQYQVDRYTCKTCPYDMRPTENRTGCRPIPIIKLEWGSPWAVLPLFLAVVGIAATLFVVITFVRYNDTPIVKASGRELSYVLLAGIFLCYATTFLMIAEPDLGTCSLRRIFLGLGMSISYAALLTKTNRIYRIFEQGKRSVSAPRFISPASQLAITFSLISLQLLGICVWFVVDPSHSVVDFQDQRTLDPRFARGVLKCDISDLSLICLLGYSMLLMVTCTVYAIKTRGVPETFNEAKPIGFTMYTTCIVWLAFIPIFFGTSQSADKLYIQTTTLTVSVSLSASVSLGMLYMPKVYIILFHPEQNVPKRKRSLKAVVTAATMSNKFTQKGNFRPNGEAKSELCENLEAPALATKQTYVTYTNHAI

For orientation: EC50 means the concentration that produces a half-maximal response. Turning to `C[C@H](C(=O)NC1COc2ccccc2C1S(C)(=O)=O)c1ccc(F)cc1` (single isomer, unassigned) [Example 16], the “effect of pre-treatment on response to CPD A (in words)” value at mGluR7 [1] (pre-treatment) is listed as “did not alter”. Further, at mouse mGluR7 (FIG. 1A), the “agonist activity at mGluR7, mouse samples (in words)” value is given as “full agonist”. For the same molecule, the concentration for a half-maximal effect (EC50) was determined as 1.8 ± 3.5 nM on mouse mGluR7 (mean ± standard deviation, n=2); 6.9 ± 0.8 nM on mGluR7 [4] (mean ± standard deviation, n=2, read-out: EC50 mGluR7 (human)); 7 nM on mGluR7 [4] (reduction of forskolin stimulated cAMP (luminescence), CHO CRE-luc human mGluR7, read-out: EC50); 34 nM in assay [5] (Mus musculus, 1 min, short incubation (1 minute), FIG. 3A, read-out: EC50 of reduction of glutamate release). Besides, at mouse mGluR7 (mean ± standard deviation, n=2), the “Emax mGluR7 (mouse)” value is on record as 100 ± 0.1 % control. In addition, the “activity on EPSCs in slices from mGluR7 KO mice (in words)” value in assay [2] (mGluR7 KO mice, 5 μM, FIG. 3D) is “inactive”. The “effect on excitatory postsynaptic currents (EPSCs) amplitude (in words)” value in assay [2] (wild-type mouse hippocampal slices, FIG. 3C) is recorded as “bimodal effect”. The “activity at mGluR8 (in words)” value on mGluR8 (FIG. 1A) is listed as “no activity”. Also, the “EC50 mGluR8” value on mGluR8 (tested ≤10 μM) was “inactive”. Moreover, at mGluR8 (tested ≤10 μM), the “Emax mGluR8” value is “inactive”. In addition, at mGluR7 [3], the “effect of increasing LY341495 concentrations on compound activity (in words)” value was “unaffected”. Besides, the “agonist activity at mGluR7, human samples (in words)” value at mGluR7 [4] (FIG. 1A) is “full agonist”. For the same molecule, the “Emax mGluR7 (human)” value on mGluR7 [4] (mean ± standard deviation, n=2) is reported as 100 ± 1.8 % control. Besides, the “activity at mGluR4 (in words)” value at mGluR4 (FIG. 1A) is listed as “no activity”. The “EC50 mGluR4” value at mGluR4 (tested ≤10 μM) is “inactive”. Further, the “Emax mGluR4” value at mGluR4 (tested ≤10 μM) was “inactive”. For the same molecule, the “enhancement of glutamate release” value in assay [5] (longer exposure (10 minutes), FIG. 3B) was 92%. Further, the “reduction of glutamate release” value in assay [5] (short incubation (1 minute), FIG. 3A) is given as 30%.
The Emax is the maximal effect, on the per cent scale that the assay sets. Regarding `Cl.Cl.c1ccc(C(NCCNC(c2ccccc2)c2ccccc2)c2ccccc2)cc1` [AMN082, N,N′-dibenzhydrylethane-1,2-diamine dihydrochloride], at mGluR7 [1] (pre-treatment 1 hour (EC80)), the “EC50 of subsequent response to CPD A increased” value turned out to be 5 fold. Moreover, the Emax at mGluR7 [1] (pre-treatment 1 hour (EC80), read-out: Emax of subsequent response to CPD A reduced by) stood at 75%.
